Consider two molecules from publication PMC6646235, “Structure and ligand binding of As-p18, an extracellular fatty acid binding protein from the eggs of a parasitic nematode” (Bioscience Reports, 2019).

SMILES strings stand for the structures.

In assay [1] the target is T1, As-p18 (Ascaris suum, UniProt P55776).
T1 construct: mature protein without secretion signal peptide, N-terminal His-tag (pQE-30/As-p18), expressed in E. coli BL21 (DE3); monomer; delipidated by RP-HPLC for NMR, co-purified lipid retained for crystal
T1 sequence (P55776 21-163): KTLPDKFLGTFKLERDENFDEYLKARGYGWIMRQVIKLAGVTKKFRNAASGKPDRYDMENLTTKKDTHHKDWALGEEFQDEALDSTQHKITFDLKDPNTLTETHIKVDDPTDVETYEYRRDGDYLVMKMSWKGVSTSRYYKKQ
The assay can be described thus: X-ray crystallography at […] Å; GC-MS of co-purified lipid. It is filed as binding. The note with it: co-purified from E. coli; pH 4.5 crystal; ligand density incomplete, vaccenate modelled.

The target of assay [2] is T1, As-p18. The experiment in a line: isothermal titration calorimetry; complex also solved by solution NMR. In kind it is binding. On the technique in general: In ITC the heat of successive injections is recorded.

One may read the Kd as the free concentration of one partner at which half of the binding sites on the other are occupied at equilibrium, for simple one-to-one binding.

On to `CCCCCC/C=C\CCCCCCCCCC(=O)O` [vaccenate, cis-11-octadecenoate], for which, in assay [1], the “X-ray crystallography at 2.3 Å; GC-MS of co-purified lipid” value was “The two X-ray structures of As-p18 in complex with vaccenate”. The molecule `CCCCCCCC/C=C\CCCCCCCC(=O)O` [oleic acid] had a dissociation constant (Kd) in assay [2] of 3.1 µM.
